Laboratory results taken from ChEMBL document CHEMBL4004877, “Synthesis and biological evaluation of chalcone, dihydrochalcone, and 1,3-diarylpropane analogs as anti-inflammatory agents” (Bioorg Med Chem Lett, 2017).
Converted amounts (≈) assume the structure as drawn. The source made the active and inactive calls. The calls are words filed in the database; no cut-off is given here.

Key:
[1] = target: MAP kinase p38 (Mus musculus) (UniProt P47811+O08911+Q9WUI1+Q9Z1B7); test: Inhibition of p38 phosphorylation in LPS-stimulated mouse RAW264.7 cells at 2.5 to 10 ug/ml preincubated for 1 hr followed by LPS challenge measured after 24 hrs by Western blot method
[2] = Cytotoxicity against LPS-stimulated mouse RAW264.7 cells assessed as cell viability at 1.25 ug/ml after 24 hrs by MTT assay relative to control; format: cell-based; conditions: LPS-stimulated RAW264.7 cells, read-out: Activity
RAW264.7 [3] = test: Inhibition of IkappaB-alpha expression in LPS-stimulated mouse RAW264.7 cells at 2.5 to 10 ug/ml preincubated for 1 hr followed by LPS challenge measured after 24 hrs by Western blot method; format: functional, cell-based
RAW264.7 [4] = test: Inhibition of iNOS expression in LPS-stimulated mouse RAW264.7 cells after 24 hrs by Western blot method; format: functional, cell-based
RAW264.7 [5] = test: Effect on non-phosphorylated p38 in LPS-stimulated mouse RAW264.7 cells at 2.5 to 10 ug/ml preincubated for 1 hr followed by LPS challenge measured after 24 hrs by Western blot method; format: cell-based; conditions: raw264.7, 24 h
RAW264.7 [6] = test: Antiinflammatory activity in mouse RAW264.7 cells assessed as inhibition of LPS induced iNOS-dependent nitric oxide production at 10 ug/ml after 24 hrs by Griess assay relative to control; format: functional; conditions: RAW264.7, 24 h
RAW264.7 [7] = test: Antiinflammatory activity in mouse RAW264.7 cells assessed as inhibition of LPS induced iNOS-dependent nitric oxide production at 2.5 ug/ml after 24 hrs by Griess assay relative to control; format: functional; conditions: RAW264.7, 24 h
Mus musculus [8] = species: Mus musculus; test: Inhibition of JNK phosphorylation in LPS-stimulated mouse RAW264.7 cells at 2.5 to 10 ug/ml preincubated for 1 hr followed by LPS challenge measured after 24 hrs by Western blot method
[9] = Cytotoxicity against LPS-stimulated mouse RAW264.7 cells assessed as cell viability at 10 ug/ml after 24 hrs by MTT assay relative to control; format: cell-based; conditions: LPS-stimulated RAW264.7 cells, read-out: Activity
RAW264.7 [10] = test: Antiinflammatory activity in mouse RAW264.7 cells assessed as inhibition of LPS induced iNOS-dependent nitric oxide production at 1.25 ug/ml after 24 hrs by Griess assay relative to control; format: functional; conditions: RAW264.7, 24 h
RAW264.7 [11] = test: Antiinflammatory activity in mouse RAW264.7 cells assessed as inhibition of LPS induced iNOS-dependent nitric oxide production at 5 ug/ml after 24 hrs by Griess assay relative to control; format: functional; conditions: RAW264.7, 24 h
[12] = Cytotoxicity against LPS-stimulated mouse RAW264.7 cells assessed as cell viability at 2.5 ug/ml after 24 hrs by MTT assay relative to control; format: cell-based; conditions: LPS-stimulated RAW264.7 cells, read-out: Activity
RAW264.7 [13] = test: Antiinflammatory activity in mouse RAW264.7 cells assessed as inhibition of LPS induced iNOS-dependent nitric oxide production after 24 hrs by Griess assay; format: functional, cell-based; conditions: RAW264.7, 24 h
RAW264.7 [14] = test: Effect on non-phosphorylated JNK in LPS-stimulated mouse RAW264.7 cells at 2.5 to 10 ug/ml preincubated for 1 hr followed by LPS challenge measured after 24 hrs by Western blot method; format: cell-based; conditions: raw264.7, 24 h
RAW264.7 [15] = test: Inhibition of COX2 expression in LPS-stimulated mouse RAW264.7 cells at 2.5 to 10 ug/ml after 24 hrs by Western blot method; format: functional, cell-based
RAW264.7 [16] = test: Effect on non-phosphorylated ERK in LPS-stimulated mouse RAW264.7 cells at 2.5 to 10 ug/ml preincubated for 1 hr followed by LPS challenge measured after 24 hrs by Western blot method; format: cell-based; conditions: raw264.7, 24 h
[17] = Cytotoxicity against LPS-stimulated mouse RAW264.7 cells assessed as cell viability at 5 ug/ml after 24 hrs by MTT assay relative to control; format: cell-based; conditions: LPS-stimulated RAW264.7 cells, read-out: Activity
Mus musculus [18] = species: Mus musculus; test: Inhibition of ERK phosphorylation in LPS-stimulated mouse RAW264.7 cells at 2.5 to 10 ug/ml preincubated for 1 hr followed by LPS challenge measured after 24 hrs by Western blot method

| SMILES | inhibition [1] | viability at 24 h, 1.25 ug/ml [2] [%] | inhibition (RAW264.7 [3]) | inhibition (RAW264.7 [4]) | Activity (RAW264.7 [5]) | inhibition at 10 µg/mL (RAW264.7 [6]) [%] | inhibition at 2.5 µg/mL (RAW264.7 [7]) [%] | inhibition (Mus musculus [8]) | viability at 24 h, 10 ug/ml [9] [%] | inhibition at 1.25 µg/mL (RAW264.7 [10]) [%] | inhibition at 5 µg/mL (RAW264.7 [11]) [%] | viability at 24 h, 2.5 ug/ml [12] [%] | IC50 (RAW264.7 [13]) [µg/mL] | Activity (RAW264.7 [14]) | inhibition (RAW264.7 [15]) | Activity (RAW264.7 [16]) | viability at 24 h, 5 ug/ml [17] [%] | inhibition (Mus musculus [18]) |
| --- | --- | --- | --- | --- | --- | --- | --- | --- | --- | --- | --- | --- | --- | --- | --- | --- | --- | --- |
| COc1ccc(CCCc2ccc(OC)c(OC)c2)c(O)c1 | Active | 97.9 | inactive | Dose-dependent effect | Non-Toxic | 75.5 | 60.5 | Active | 44.5 | 29.6 | 69.2 | 91.7 | 1.97 (≈ 6.52 µM) | Non-Toxic | Active | Non-Toxic | 88.9 | Active |
| COc1ccc(/C=C/C(=O)c2ccc(OC)c(OC)c2)cc1OC | – | 94 | – | – | – | 3.3 | 1.7 | – | 60.4 | 0.2 | 2 | 91.9 | > 10 | – | – | – | 81.3 | – |
| COc1ccc(CCCc2cc(OC)ccc2OC)c(O)c1 | – | 102 | – | – | – | 50.2 | 31.7 | – | 42.5 | 6.2 | 36.4 | 102 | 9.9 (≈ 32.7 µM) | – | – | – | 98.5 | – |
| COc1ccc(C(=O)CCc2cc(OC)ccc2OC)c(O)c1 | – | 96.4 | – | – | – | 14 | 8.2 | – | 92.4 | 6.6 | 11.9 | 96.2 | > 10 | – | – | – | 91.1 | – |
| COc1cc(CCC(=O)c2cccc(O)c2)ccc1O | – | 100 | – | – | – | 50.9 | 19.8 | – | 91 | 5.6 | 23.2 | 98.9 | 9.78 (≈ 35.9 µM) | – | – | – | 96.1 | – |
| COc1cc(C(=O)/C=C/c2ccc3c(c2)OCO3)ccc1O | – | 100 | – | – | – | 51.8 | 0.6 | – | 72.7 | 5.3 | 49.1 | 85.3 | 6.3 (≈ 21.1 µM) | – | – | – | 81.1 | – |
| O=C(/C=C/c1ccc2c(c1)OCO2)c1ccc(O)cc1 | – | 99.2 | – | – | – | 52.5 | 1.1 | – | 68 | 4.9 | 14.1 | 95.2 | 9.56 (≈ 35.6 µM) | – | – | – | 88.5 | – |
| COc1ccc(C(=O)/C=C/c2ccc(OC)c(OC)c2OC)c(O)c1 | – | 98.5 | – | – | – | 0.1 | 9.7 | – | 75.3 | 9.1 | 4.1 | 96.6 | > 10 | – | – | – | 72.5 | – |
| COc1ccc(C(=O)CCc2ccc3c(c2)OCO3)c(OC)c1 | – | 87.4 | – | – | – | 9.8 | 4.5 | – | 81 | 0.2 | 6.6 | 87.2 | > 10 | – | – | – | 83.2 | – |
